Laboratory results published in patent US12486267B2, “Imidazo[1,2-A]pyridine and [1,2,4]triazolo[1,5-A]pyridine derivatives as TLR9 inhibitors for the treatment of fibrosis” (BRISTOL-MYERS SQUIBB COMPANY, priority 2020, dated 2025).

These compounds were tested against T1, human TLR7 (Homo sapiens, UniProt Q9NYK1) (assay: TLR7 inhibition reporter assay (HEK-Blue cells, SEAP reporter)). Settings: HEK-Blue cells overexpressing human TLR7; stimulated with gardiquimod 7.5 μM; 22 hour incubation; SEAP readout.
T1 sequence (Q9NYK1 27-1049): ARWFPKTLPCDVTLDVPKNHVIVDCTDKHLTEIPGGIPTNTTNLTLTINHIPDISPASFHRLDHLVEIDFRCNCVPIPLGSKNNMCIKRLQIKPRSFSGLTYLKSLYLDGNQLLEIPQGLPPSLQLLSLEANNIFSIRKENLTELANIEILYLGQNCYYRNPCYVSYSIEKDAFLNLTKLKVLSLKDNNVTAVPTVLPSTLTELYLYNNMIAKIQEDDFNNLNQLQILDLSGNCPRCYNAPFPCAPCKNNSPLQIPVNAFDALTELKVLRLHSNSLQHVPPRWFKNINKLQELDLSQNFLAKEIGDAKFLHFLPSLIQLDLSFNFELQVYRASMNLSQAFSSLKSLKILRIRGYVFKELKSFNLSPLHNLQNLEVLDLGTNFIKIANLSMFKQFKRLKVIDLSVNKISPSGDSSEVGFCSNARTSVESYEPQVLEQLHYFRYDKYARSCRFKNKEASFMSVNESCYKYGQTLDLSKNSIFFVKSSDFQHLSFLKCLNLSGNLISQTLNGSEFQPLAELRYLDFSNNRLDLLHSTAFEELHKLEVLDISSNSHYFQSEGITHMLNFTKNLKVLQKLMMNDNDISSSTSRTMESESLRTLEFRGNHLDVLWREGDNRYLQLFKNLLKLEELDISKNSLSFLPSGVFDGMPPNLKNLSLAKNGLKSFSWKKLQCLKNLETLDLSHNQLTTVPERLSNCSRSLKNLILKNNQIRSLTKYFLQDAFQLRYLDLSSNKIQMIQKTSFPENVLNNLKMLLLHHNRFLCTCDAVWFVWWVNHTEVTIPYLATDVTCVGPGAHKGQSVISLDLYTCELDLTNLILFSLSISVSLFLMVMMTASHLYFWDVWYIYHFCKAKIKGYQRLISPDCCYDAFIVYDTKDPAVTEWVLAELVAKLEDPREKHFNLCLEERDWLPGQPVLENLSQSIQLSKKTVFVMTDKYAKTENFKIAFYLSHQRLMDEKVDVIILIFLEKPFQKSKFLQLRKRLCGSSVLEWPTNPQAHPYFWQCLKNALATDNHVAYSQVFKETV
Type: cell-based
Protocol: (§1) TLR7/8/9 Inhibition Reporter Assays
(§2) HEK-Blue™-cells (Invivogen) overexpressing human TLR7, TLR8 or TLR9 receptors were used for screening inhibitors of these receptors using an inducible SEAP (secreted embryonic alkaline phosphatase) reporter gene under the control of the […] minimal promoter fused to five NF-κB and AP-1-binding sites. Briefly, cells are seeded into Greiner 384 well plates (15000 cells per well for TLR7, 20,000 for TLR8 and 25,000 for TLR9) and then treated with test compounds in DMSO to yield a final dose response concentration range of 0.05 nM-50 μM. After a 30 minute compound pre-treatment at room temperature, the cells are then stimulated with a TLR7 ligand (gardiquimod at a final concentration of 7.5 μM), TLR8 ligand (R848 at a final concentration of 15.9 μM) or TLR9 ligand (ODN2006 at a final concentration of 5 nM) to activate NF-κB and AP-1 which induce the production of SEAP. After a 22 hour incubation at 37° C., 5% CO2, SEAP levels are determined with the addition of HEK-Blue™ Detection reagent (Invivogen), a cell culture medium that allows for detection of SEAP, according to manufacturer's specifications. The percent inhibition is determined as the % reduction in the HEK-Blue signal present in wells treated with agonist plus DMSO alone compared to wells treated with a known inhibitor.

Structure (SMILES) | IC50 [nM]
CC(C)CN1CCC(N2CCC(c3ccn4cc(-c5ccc(S(C)(=O)=O)cc5)nc4c3F)CC2)CC1 [Example 74, 8-fluoro-7-(1′-isobutyl-[1,4′-bipiperidin]-4-yl)-2-(4-(methylsulfonyl)phenyl)imidazo[1,2-a]pyridine] | 2400
COCCN1CCN(c2ccc(-c3cc(C)c4nc(-c5ccc(OC)c(OC)c5)cn4c3)cc2)CC1 [Example 98, 2-(3,4-dimethoxyphenyl)-6-(4-(4-(2-methoxyethyl)piperazin-1-yl)phenyl)-8-methylimidazo[1,2-a]pyridine] | 1000

These compounds were tested against T2, human TLR9 (Homo sapiens, UniProt Q9NR96) (assay: TLR9 inhibition reporter assay (HEK-Blue cells, SEAP reporter)). Settings: HEK-Blue cells overexpressing human TLR9; stimulated with ODN2006 5 nM; 22 hour incubation; SEAP readout.
T2 sequence (Q9NR96 26-1032): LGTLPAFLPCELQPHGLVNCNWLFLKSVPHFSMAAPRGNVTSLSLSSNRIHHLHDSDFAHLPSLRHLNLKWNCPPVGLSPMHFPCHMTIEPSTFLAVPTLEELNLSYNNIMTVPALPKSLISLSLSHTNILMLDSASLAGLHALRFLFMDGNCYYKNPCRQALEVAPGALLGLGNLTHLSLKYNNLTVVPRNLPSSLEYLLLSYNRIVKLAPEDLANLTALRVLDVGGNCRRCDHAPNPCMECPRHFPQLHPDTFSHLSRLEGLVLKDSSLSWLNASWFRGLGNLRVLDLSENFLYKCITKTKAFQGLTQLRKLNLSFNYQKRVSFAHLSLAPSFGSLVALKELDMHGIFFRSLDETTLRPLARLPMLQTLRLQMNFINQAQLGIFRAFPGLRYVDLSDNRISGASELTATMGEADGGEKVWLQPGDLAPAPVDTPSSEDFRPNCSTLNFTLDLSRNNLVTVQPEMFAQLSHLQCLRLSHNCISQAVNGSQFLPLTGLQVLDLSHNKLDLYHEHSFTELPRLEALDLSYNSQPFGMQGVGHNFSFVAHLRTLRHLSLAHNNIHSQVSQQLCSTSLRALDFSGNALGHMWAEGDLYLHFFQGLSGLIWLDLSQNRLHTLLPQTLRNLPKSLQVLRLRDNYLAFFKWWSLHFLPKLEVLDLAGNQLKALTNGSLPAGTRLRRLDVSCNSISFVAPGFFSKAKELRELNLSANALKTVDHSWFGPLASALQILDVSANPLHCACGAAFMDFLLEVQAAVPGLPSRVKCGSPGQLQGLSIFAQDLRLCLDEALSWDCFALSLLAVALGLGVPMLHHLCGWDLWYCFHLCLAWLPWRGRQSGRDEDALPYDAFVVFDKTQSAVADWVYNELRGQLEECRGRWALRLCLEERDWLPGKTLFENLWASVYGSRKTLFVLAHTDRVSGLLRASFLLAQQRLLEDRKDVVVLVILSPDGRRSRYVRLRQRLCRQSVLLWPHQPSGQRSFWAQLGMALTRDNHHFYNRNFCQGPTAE
Type: cell-based
Protocol: as §1, §2

Structure (SMILES) | IC50 [nM]
CC(C)CN1CCC(N2CCC(c3ccn4cc(-c5ccc(S(C)(=O)=O)cc5)nc4c3F)CC2)CC1 [Example 74, 8-fluoro-7-(1′-isobutyl-[1,4′-bipiperidin]-4-yl)-2-(4-(methylsulfonyl)phenyl)imidazo[1,2-a]pyridine] | 55
COCCN1CCN(c2ccc(-c3cc(C)c4nc(-c5ccc(OC)c(OC)c5)cn4c3)cc2)CC1 [Example 98, 2-(3,4-dimethoxyphenyl)-6-(4-(4-(2-methoxyethyl)piperazin-1-yl)phenyl)-8-methylimidazo[1,2-a]pyridine] | 456
Cc1cc(-c2ccc(N3CC4CCC(C3)N4C(C)C)cc2)cn2nc(-c3ccc(S(C)(=O)=O)cc3)nc12 [Example 153, 6-(4-(8-isopropyl-3,8-diazabicyclo[3.2.1]octan-3-yl)phenyl)-8-methyl-2-(4-(methylsulfonyl)phenyl)-[1,2,4]triazolo[1,5-a]pyridine] | 659
CC1CC(c2ccc(N3CC4CCC(C3)N4C(C)C)cc2)Cn2nc(-c3ccc(S(C)(=O)=O)cc3)nc21 (stereo not shown) [Example 154, 6-(4-(8-isopropyl-3,8-diazabicyclo[3.2.1]octan-3-yl)phenyl)-8-methyl-2-(4-(methylsulfonyl)phenyl)-5,6,7,8-tetrahydro-[1,2,4]triazolo[1,5-a]pyridine] | 7740
COc1ccc(-c2nc3c(C)cc(C4CC5CCC(C4)N5C4CCN(C5CC5)CC4)cn3n2)cc1OC (stereo not shown) [Example 155, 6-(8-(1-cyclopropylpiperidin-4-yl)-8-azabicyclo[3.2.1]octan-3-yl)-2-(3,4-dimethoxyphenyl)-8-methyl-[1,2,4]triazolo[1,5-a]pyridine] | 214
COc1ccc(-c2nc3c(C)cc(C4CC5CCC(C4)N5C4CCN(C(C)C)CC4)cn3n2)cc1OC (stereo not shown) [Example 156, 2-(3,4-dimethoxyphenyl)-6-(8-(1-isopropylpiperidin-4-yl)-8-azabicyclo[3.2.1]octan-3-yl)-8-methyl-[1,2,4]triazolo[1,5-a]pyridine] | 234
COc1ccc(-c2nc3c(C)cc(C4CCN(C5CCN(C6CC6)CC5)CC4)cn3n2)cc1OC [Example 157, 6-(1′-cyclopropyl-[1,4′-bipiperidin]-4-yl)-2-(3,4-dimethoxyphenyl)-8-methyl-[1,2,4]triazolo[1,5-a]pyridine] | 232
COc1ccc(-c2nc3c(C)cc(C4CCN(C5CCN(C(C)C)CC5)CC4)cn3n2)cc1OC [Example 158, 2-(3,4-dimethoxyphenyl)-6-(1′-isopropyl-[1,4′-bipiperidin]-4-yl)-8-methyl-[1,2,4]triazolo[1,5-a] pyridine] | 152
Cc1cc(C2CC3CCC(C2)N3C2CCN(C3CC3)CC2)cn2nc(-c3ccc(S(C)(=O)=O)cc3)nc12 (stereo not shown) [Example 159, 6-(8-(1-cyclopropylpiperidin-4-yl)-8-azabicyclo[3.2.1]octan-3-yl)-8-methyl-2-(4-(methylsulfonyl)phenyl)-[1,2,4]triazolo[1,5-a]pyridine] | 594
Cc1cc(C2CCN(C3CCN(C4CC4)CC3)CC2)cn2nc(-c3ccc(S(C)(=O)=O)cc3)nc12 [Example 161, 6-(1′-cyclopropyl-[1,4′-bipiperidin]-4-yl)-8-methyl-2-(4-(methylsulfonyl)phenyl)-[1,2,4]triazolo[1,5-a]pyridine] | 270
COc1ccc(-c2nc3ccc(C4CCN(C5CCN(C6CC6)CC5)CC4)cn3n2)cc1OC [Example 164, 6-(1′-cyclopropyl-[1,4′-bipiperidin]-4-yl)-2-(3,4-dimethoxyphenyl)-[1,2,4]triazolo[1,5-a]pyridine] | 390
COc1ccc(-c2nc3ccc(C4CCN(C5CCN(C(C)C)CC5)CC4)cn3n2)cc1OC [Example 165, 2-(3,4-dimethoxyphenyl)-6-(1′-isopropyl-[1,4′-bipiperidin]-4-yl)-[1,2,4]triazolo[1,5-a]pyridine] | 113
COc1ccc(-c2nc3ccc(-c4ccc(N5CC6CCC(C5)N6C(C)C)cc4)cn3n2)cc1OC [Example 166] | 628
CC(C)N1CCN(c2ccc(-c3ccc4nc(-c5ccc(S(C)(=O)=O)cc5)nn4c3)cc2)CC1 [Example 167, 6-(4-(4-isopropylpiperazin-1-yl)phenyl)-2-(4-(methylsulfonyl)phenyl)-[1,2,4]triazolo[1,5-a]pyridine] | 1630
